According to the supplement of paper PMC6045584:
± gives the standard deviation of the averaged measurements.

Compound: CC(=O)c1c(C)c2cnc(Nc3ccc(N4CCNCC4)cn3)nc2n(C2CCCC2)c1=O
Test: surviving fraction relative to DMSO-only wells; higher = less growth inhibition
Conditions: 10 nM; exposure time: 5 days
Method in brief: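 Lines were retained only if, across three screens, replicate Pearson r was >0.7 and median Z' was >0.3. Viability was measured as CellTiter-Glo luminescence and reported as surviving fraction relative to the median of DMSO-only wells. Readings followed 10 minutes at room temperature, after log-phase tumour cells seeded at 250–500 per well in 384-well plates had been exposed, from 24 hours after seeding, continuously for five days to inhibitors at 0.5, 1, 5, 10, 50, 100, 500 and 1000 nM.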

Test System	surviving fraction
ZR751 BREAST	0.953 ± 0.15

Same assay, conditions: 50 nM; exposure time: 5 days

Test System	surviving fraction
JIMT1 BREAST	1.1 ± 0.03
LM7 BONE	1.06 ± 0.093
LNCAP PROSTATE	0.952 ± 0.15
MDAMB134 BREAST	1.154 ± 0.0057
MDAMB157 BREAST	1.03 ± 0.12
MDAMB231 BREAST	1.045 ± 0.0069
MDAMB361 BREAST	0.881 ± 0.083
MDAMB436 BREAST	0.92 ± 0.042
MDAMB468 BREAST	1.1 ± 0.038
MFM223 BREAST	1.15 ± 0.14
MG63 BONE	1.07 ± 0.035
MHM BONE	1.05 ± 0.019
NCIH441 LUNG	1.08 ± 0.093
NOS1 BONE	1.07 ± 0.055
NY BONE	1.12 ± 0.023
OS25HAL BONE	1.11 ± 0.013
OSHN BONE	1.12 ± 0.037
RDES SOFT TISSUE	1.02 ± 0.24
SCC47 HEADNECK	1.17 ± 0.065
SCC90 HEADNECK	1.06 ± 0.042

Test System	surviving fraction
SG27 HEADNECK	1.08 ± 0.15
SG28 HEADNECK	1.02 ± 0.16
SG31 HEADNECK	0.976 ± 0.071
SG32 HEADNECK	0.942 ± 0.11
SG43 HEADNECK	0.73 ± 0.11
SIHA CERVIX	1.1 ± 0.039
SJSA1 BONE	1.08 ± 0.028
SKBR3 BREAST	0.923 ± 0.056
SNU475 LIVER	1.07 ± 0.02
SUM44 BREAST	1.08 ± 0.1
SUM149.B1*.S BREAST	1.19 ± 0.056
SUM159 BREAST	0.916 ± 0.3
SYO1 SYNOVIAL	0.995 ± 0.018
T47D BREAST	1.17 ± 0.014
U2OS BONE	1.06 ± 0.034
VCAP PROSTATE	1.1 ± 0.13
VP229 BREAST	0.995 ± 0.055
YAMATO SYNOVIAL	1.3 ± 0.061
ZR751 BREAST	1.13 ± 0.059

Same assay, conditions: 100 nM; exposure time: 5 days

Test System	surviving fraction
JIMT1 BREAST	1 ± 0.031
LM7 BONE	1.09 ± 0.046
LNCAP PROSTATE	1.1 ± 0.13
MDAMB134 BREAST	1.26 ± 0.22
MDAMB157 BREAST	1.01 ± 0.13
MDAMB231 BREAST	1.02 ± 0.021
MDAMB361 BREAST	0.86 ± 0.032
MDAMB436 BREAST	0.915 ± 0.07
MDAMB468 BREAST	1.12 ± 0.032
MFM223 BREAST	1.15 ± 0.1
MG63 BONE	1.07 ± 0.031
MHM BONE	1.03 ± 0.016
NCIH441 LUNG	1.09 ± 0.052
NOS1 BONE	1.11 ± 0.034
NY BONE	1.06 ± 0.043
OS25HAL BONE	1.05 ± 0.046
OSHN BONE	1.1 ± 0.018
RDES SOFT TISSUE	1.02 ± 0.21
SCC47 HEADNECK	1.1 ± 0.091

Test System	surviving fraction
SCC90 HEADNECK	1.19 ± 0.14
SG27 HEADNECK	1.09 ± 0.1
SG28 HEADNECK	1.02 ± 0.13
SG31 HEADNECK	0.977 ± 0.24
SG32 HEADNECK	0.993 ± 0.16
SG43 HEADNECK	0.745 ± 0.12
SIHA CERVIX	1.13 ± 0.11
SJSA1 BONE	1.12 ± 0.013
SKBR3 BREAST	0.892 ± 0.12
SNU475 LIVER	1.03 ± 0.088
SUM44 BREAST	1.05 ± 0.043
SUM149.B1*.S BREAST	1.22 ± 0.058
SUM159 BREAST	0.842 ± 0.43
SYO1 SYNOVIAL	0.98 ± 0.066
T47D BREAST	1.08 ± 0.045
U2OS BONE	1.06 ± 0.033
VCAP PROSTATE	1.18 ± 0.025
VP229 BREAST	0.978 ± 0.15
YAMATO SYNOVIAL	1.25 ± 0.047
